Results as given in PubChem BioAssay (NCI).
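Five concentrations, 48 hours, 96-well plates. Definition used: TGI = concentration required for complete inhibition of growth.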

Assays:
Assay in all cases: NCI-60 cell line screen, 48 h
CCRF-CEM leukemia = system: CCRF-CEM leukemia
HCT-15 colon = system: HCT-15 colon
HOP-62 NSCLC = system: HOP-62 NSCLC
HOP-92 NSCLC = system: HOP-92 NSCLC
HT29 colon = system: HT29 colon
IGROV1 ovarian = system: IGROV1 ovarian
LOX IMVI melanoma = system: LOX IMVI melanoma
NCI-H23 lung = system: NCI-H23 lung
NCI-H522 lung = system: NCI-H522 lung
OVCAR-4 ovarian = system: OVCAR-4 ovarian
OVCAR-5 ovarian = system: OVCAR-5 ovarian
RPMI-8226 leukemia = system: RPMI-8226 leukemia
RXF 393 renal = system: RXF 393 renal
SF-268 CNS = system: SF-268 CNS
SK-MEL-28 melanoma = system: SK-MEL-28 melanoma
SK-OV-3 ovarian = system: SK-OV-3 ovarian
SNB-19 CNS = system: SNB-19 CNS
U251 CNS = system: U251 CNS
UACC-257 melanoma = system: UACC-257 melanoma
SNB-75 CNS = system: SNB-75 CNS

| SMILES | TGI (CCRF-CEM leukemia) [µM] | TGI (HCT-15 colon) [µM] | TGI (HOP-62 NSCLC) [µM] | TGI (HOP-92 NSCLC) [µM] | TGI (HT29 colon) [µM] | TGI (IGROV1 ovarian) [µM] | TGI (LOX IMVI melanoma) [µM] | TGI (NCI-H23 lung) [µM] | TGI (NCI-H522 lung) [µM] | TGI (OVCAR-4 ovarian) [µM] | TGI (OVCAR-5 ovarian) [µM] | TGI (RPMI-8226 leukemia) [µM] | TGI (RXF 393 renal) [µM] | TGI (SF-268 CNS) [µM] | TGI (SK-MEL-28 melanoma) [µM] | TGI (SK-OV-3 ovarian) [µM] | TGI (SNB-19 CNS) [µM] | TGI (U251 CNS) [µM] | TGI (UACC-257 melanoma) [µM] | TGI (SNB-75 CNS) [µM] |
| --- | --- | --- | --- | --- | --- | --- | --- | --- | --- | --- | --- | --- | --- | --- | --- | --- | --- | --- | --- | --- |
| O=P(O)(O)CCP(=O)(O)O | > 100 | > 100 | > 100 | > 100 | > 100 | > 100 | > 100 | > 100 | > 100 | > 100 | > 100 | > 100 | > 100 | > 100 | > 100 | > 100 | > 100 | > 100 | > 100 |  |
| NC(CCCCCP(=O)(c1ccccc1)C1C=CC=CC1)C(=O)O (stereo unspecified) | > 100 | > 100 |  | > 100 | > 100 | > 100 | > 100 | > 100 | > 100 | > 100 | > 100 | > 100 | > 100 | > 100 | > 100 | > 100 | > 100 | > 100 | > 100 | > 100 |
| CCCC(=O)OCC1OC(n2ccc(N)nc2=O)C(OC(=O)CCC)C1OC(=O)CCC (stereo unspecified) | > 100 | > 100 | 8.55 | > 100 | > 100 | > 100 | > 100 | > 100 | > 100 | > 100 | > 100 | > 100 | > 100 | > 100 | > 95.2 | > 100 | > 100 | > 100 | > 100 | > 100 |
| CC(=O)OC1/C=C(\C)C(OC(C)=O)C/C=C(/C)CCC2C(/C=C/C1=O)C2(C)C (stereo unspecified) | > 100 | > 100 | > 100 | > 100 | > 100 | > 100 | > 100 | > 100 | > 100 | > 100 | > 100 |  | > 100 | > 100 | > 100 | > 100 | > 100 | > 100 | > 100 | 93.1 |
| O=c1sc2ccccc2n1CC1CS1 (stereo unspecified) | > 100 | > 100 | > 100 | > 100 | > 100 | > 100 | > 100 |  | > 100 | > 100 | > 100 | > 100 | > 100 | > 100 | > 100 | > 100 | > 100 |  |  |  |
| CCN(CC)CCNc1ccc2nnn3c4ccc(OCCN(CC)CC)cc4c(=O)c1c23 | 49 | > 100 | 72.9 | > 100 | 54.2 |  |  | > 100 | > 100 | 41.3 | > 100 | > 100 | > 100 | > 100 | > 100 | > 100 | > 100 | > 100 | > 100 |  |
| COc1ccc(/C=C2\CCNC2=O)cc1 | > 100 | > 100 | > 100 | > 100 | > 100 | > 100 | > 100 | > 100 | > 100 | > 100 | > 100 | > 100 |  | > 100 | > 100 | > 100 | > 100 | > 100 | > 100 | > 79.5 |
| C=CCc1c(O)c2c(c3oc(=O)cc(C)c13)CC(C)O2 (stereo unspecified) | > 100 | > 100 | > 100 |  | > 100 | > 100 | > 100 | > 100 | > 100 | > 100 | > 100 | > 100 | > 100 | > 100 |  | > 100 | > 100 | > 100 | > 100 | > 100 |
| CC(C)Cc1ccc(C(C)C(=O)N2CCN(/C=C/c3ccccc3)CC2)cc1 (stereo unspecified) | 37.1 | 27.5 | 29.7 | 26.1 | 28 | 28.7 | 33.1 | 27.1 | 25 | 25.6 | 26.9 | 25.6 | 30.8 | 32 | 32.1 | 30.3 | 22 | 25.5 | 31.4 | 29.1 |
| CCOc1ncn(-c2ccc(NC(=S)Nc3ncccn3)cc2)n1 | 59.1 | > 100 | > 100 | 87 | 25.7 | > 100 | 37.9 | > 100 | 38.6 | > 100 | > 100 | > 100 |  | > 100 | 59.8 | > 100 | > 100 | > 100 | > 100 | > 100 |
